Reference: PMC7136958, “Targeting the pregnane X receptor using microbial metabolite mimicry” (EMBO Molecular Medicine, 2020)
Several values for one entry are separate records, joined by “and”; a condition that tells them apart may be missing. Equal entries are not always repeated. Where two headings read alike, the source gives them in different places.

Legend:
JNK1 = JNK1 (Homo sapiens, UniProt P45983); test: KINOMEscan select kinase screen; assay type: binding; conditions: two experiments
Method: (§1) Kinase Assays. The kinase inhibition assays were conducted by DiscoverX on a platform assay by Ambit BioSciences as described previously 16,17. FKK6 was screened at a single concentration of 10 μM in duplicate. The scanMAXSM assay panel measures 468 kinases
(§2) (https://www.discoverx.com/services/drug-discovery-development-services/kinase-profiling/kinomescan/scanmax). The assays measure a compound’s ability to inhibit binding of a canonical ligand substrate, with 0% activity of control corresponding to full inhibition and 100% activity of control to no inhibition. […]

JNK2 = JNK2 (Homo sapiens, UniProt P45984); test: KINOMEscan select kinase screen; assay type: binding; conditions: two experiments
Method: as §1, §2

S6K1 = S6K1 (Homo sapiens, UniProt P23443); test: KINOMEscan select kinase screen; assay type: binding; conditions: two experiments
Method: as §1, §2

C57BL/6 mice = test: PXR target gene expression in C57BL/6 mice after FKK6 gavage; assay type: in vivo, mouse; conditions: for Cyp3a11 fold expression / mdr1 fold expression: Fig 4d
Method: (§3) (Scheer et al, 2010) were administered 10% DMSO (n = 3) or FKK6 (n = 3) in 3 or 5 doses, with each dose interval of 12 h. Each gavage dose volume was 100 μl. 2–4 h after the dosing period, mice were sacrificed, and tissues were harvested for further analysis. The mouse studies were performed three independent times over an 18‐month period. All purchased mice were acclimatized in the Einstein vivarium for ~ 2 weeks before experiments started. […]. The room temperature was maintained at 25 ± 2°C with 55 ± 5% humidity. All studies were approved by the Institute of Animal Studies at the Albert Einstein College of Medicine, INC (IACUC # 20160706, 20160701 and preceding protocols), and specific animal protocols were also approved by additional protocols (IACUC# 20170406, 20170504) and Animal Care and Use Review Office (ACURO) of the US Army Medical Research and Materiel Command (PR160167, W81XWH‐17‐1‐0479). […]
(§4) Mouse small, large intestine and liver samples were collected and total RNAs were […]
(§5) isolated. […] Each tissue PCR was […]
(§6) repeated in quadruplicate. The expression was normalized to internal control, GAPDH. ( b,d) The histograms show mean (95 %CI) values, c, mean (SD) and two way ANOVA followed with Tukey's post hoc test. The entire experiment was repeated n = 3 for reproducibility. The data shown is one representative experiment .

Cyp3a11 [1] = test: as above; assay type: in vivo, mouse; conditions: both sexes, C57BL/6J, mouse, 500 μM, 5 doses (60 h), individual mice
Method: as §3, §4, §5, §6

mdr1a = test: as above; assay type: in vivo, mouse; conditions: both sexes, C57BL/6J, mouse, 500 μM, 5 doses (60 h), individual mice
Method: as §3, §4, §5, §6

Cyp3a11 [2] = test: PXR target gene expression in pxr -/- mice after FKK6 gavage; assay type: in vivo, mouse; conditions: pxr-/- (PXR knockout), mouse, oral, 500 μM, 5 doses (60 h), mean
Method: as §3, §4, §5, §6

mdr1 = test: as above; assay type: in vivo, mouse; conditions: pxr-/- (PXR knockout), mouse, oral, 500 μM, 5 doses (60 h), mean
Method: as §3, §4, §5, §6

pxr -/- mice [3] = test: as above; assay type: in vivo, mouse; conditions: for Cyp3a11 fold expression / mdr1 fold expression: Fig 4e
Method: as §3, §4, §5, §6

pxr -/- mice [4] = test: DSS-induced acute colitis in pxr -/- mice; assay type: in vivo, mouse
Method: For these studies, 7‐ to 8‐week‐old female (DeVoss & Diehl, 2014) hPXR (mice expressing the human PXR gene) and pxr ^−/− mice (C57BL/6 background) were bred and each genotype was separated into two treatment groups using a random allocation method via coin toss—(i) n = 3 control (0.8% DMSO in 100 μl drinking water) and (ii) n = 3 FKK6 (200 μM (0.4 mg/kg/day) in 0.8% DMSO in 100 μl drinking water) administered once per day via oral gavage, and via intrarectal gavage for a total of 10 consecutive days The dose was chosen based on the extrapolation of the total dose delivered over 10 days to mice (~ 4 mg/kg), which is equivalent to that delivered to mice for determining target gene expression over 3–5 doses (3–5 mg/kg). […] Fecal pellets were collected prior to the initiation of the treatment protocol. All mice were starved overnight (12 h) to allow for smooth intrarectal delivery; however, the mice were allowed to feed ad libitum during the day. After 10 days, the mice were sacrificed and organs/tissues/feces harvested for further study. Prior to necropsy, mice were administered FITC‐dextran, and mouse serum was collected for the FITC‐dextran assay as previously described (Vetizou et al, 2015). The experimenter was not blinded to treatment allocation; however, the pathologist (KS) evaluating histologic scores was blinded to treatment allocation. […]

[5] = 500 μM, 5 doses (60 h), individual mice

Sequence of JNK1 (P45983 whole entry): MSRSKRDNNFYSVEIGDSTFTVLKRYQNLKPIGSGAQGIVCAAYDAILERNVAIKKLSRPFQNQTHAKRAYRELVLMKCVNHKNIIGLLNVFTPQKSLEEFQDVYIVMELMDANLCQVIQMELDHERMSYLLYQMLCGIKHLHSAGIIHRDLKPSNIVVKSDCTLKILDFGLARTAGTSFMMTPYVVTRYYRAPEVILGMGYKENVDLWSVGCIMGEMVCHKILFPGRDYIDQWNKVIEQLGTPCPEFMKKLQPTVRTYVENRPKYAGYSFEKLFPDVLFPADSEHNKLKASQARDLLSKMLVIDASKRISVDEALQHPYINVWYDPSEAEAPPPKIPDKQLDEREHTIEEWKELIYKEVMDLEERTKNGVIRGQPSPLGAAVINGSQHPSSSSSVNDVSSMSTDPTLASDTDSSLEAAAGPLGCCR
Sequence of JNK2 (P45984 whole entry): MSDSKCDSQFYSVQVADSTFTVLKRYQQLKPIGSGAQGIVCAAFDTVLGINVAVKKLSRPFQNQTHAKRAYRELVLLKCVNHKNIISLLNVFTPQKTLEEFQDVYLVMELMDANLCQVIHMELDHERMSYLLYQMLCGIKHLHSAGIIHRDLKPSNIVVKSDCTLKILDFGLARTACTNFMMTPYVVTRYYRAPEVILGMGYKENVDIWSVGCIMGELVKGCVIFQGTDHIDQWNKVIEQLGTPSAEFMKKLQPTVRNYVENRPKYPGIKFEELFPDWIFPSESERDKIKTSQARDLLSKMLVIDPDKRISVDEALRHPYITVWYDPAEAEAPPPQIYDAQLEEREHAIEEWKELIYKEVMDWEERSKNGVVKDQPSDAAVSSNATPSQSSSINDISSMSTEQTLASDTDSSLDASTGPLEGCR
Sequence of S6K1 (P23443 whole entry): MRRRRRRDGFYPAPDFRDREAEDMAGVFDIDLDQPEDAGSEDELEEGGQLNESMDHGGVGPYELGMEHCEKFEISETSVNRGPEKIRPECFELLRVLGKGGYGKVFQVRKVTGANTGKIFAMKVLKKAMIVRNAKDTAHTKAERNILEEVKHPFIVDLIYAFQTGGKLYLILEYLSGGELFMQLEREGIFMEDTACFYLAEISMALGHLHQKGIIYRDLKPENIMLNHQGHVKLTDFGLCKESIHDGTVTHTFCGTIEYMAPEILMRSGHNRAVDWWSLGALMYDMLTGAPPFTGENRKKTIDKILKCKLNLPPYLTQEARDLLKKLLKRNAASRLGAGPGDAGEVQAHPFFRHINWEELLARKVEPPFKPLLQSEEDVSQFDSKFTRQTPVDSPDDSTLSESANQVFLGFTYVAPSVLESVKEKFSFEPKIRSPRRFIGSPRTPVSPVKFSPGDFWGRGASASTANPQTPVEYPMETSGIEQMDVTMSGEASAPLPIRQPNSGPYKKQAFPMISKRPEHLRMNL

## O=C(c1ccncc1)c1cc2ccccc2n1S(=O)(=O)c1ccccc1 [FKK5, (1-(phenylsulfonyl)-1H-indol-2-yl)(pyridin-4-yl)methanone]
JNK1; 10000 nM, 10 µM
  %Ctrl: 95 %Ctrl
JNK1; 10000 nM, read-out: %Ctrl
  remaining binding at 10 µM: 91%
JNK1; 25000 nM, 25 µM
  %Ctrl: 85 %Ctrl
JNK1; 25000 nM, read-out: %Ctrl
  remaining binding at 25 µM: 66%
JNK2; 10000 nM, 10 µM
  %Ctrl: 88 %Ctrl
JNK2; 10000 nM, read-out: %Ctrl
  remaining binding at 10 µM: 95%
JNK2; 25000 nM, 25 µM
  %Ctrl: 80 %Ctrl
JNK2; 25000 nM, read-out: %Ctrl
  remaining binding at 25 µM: 74%
S6K1; 10000 nM, 10 µM
  %Ctrl: 79 %Ctrl and 100 %Ctrl
S6K1; 25000 nM, 25 µM
  %Ctrl: 89 %Ctrl
S6K1; 25000 nM, read-out: %Ctrl
  remaining binding at 25 µM: 71%

## C#CCC(O)(c1ccncc1)c1cc2ccccc2n1S(=O)(=O)c1ccccc1 (centres unmarked) [FKK6]
C57BL/6 mice; 500 μM FKK6 gavage every 12 h, 5 doses (60 h), individual mice
  Cyp3a11 fold induction, Liver: 1.38 fold and 0.89 fold
C57BL/6 mice; [5]
  Cyp3a11 fold induction, Large Intestine: 2.23 fold and 0.59 fold
  Cyp3a11 fold induction, Small Intestine: 1.06 fold and 0.22 fold and 0.76 fold
  mdr1a fold induction, Large Intestine: 1.77 fold and 1.33 fold
  mdr1a fold induction, Liver: 1.83 fold
  mdr1a fold induction, Small Intestine: 2.65 fold and 1.8 fold and 0.95 fold
  mdr1b fold induction, Large Intestine: 0.89 fold and 0.42 fold and 0.77 fold
  mdr1b fold induction, Liver: 1.65 fold and 1.12 fold and 0.6 fold
  mdr1b fold induction, Small Intestine: 2.4 fold and 1.54 fold and 0.43 fold
C57BL/6 mice; Large Intestine
  Cyp3a11 fold expression: 1.73 fold and 2.49 fold and 1.98 fold
  mdr1 fold expression: 1.58 fold and 1.34 fold and 1.57 fold
C57BL/6 mice; Liver
  Cyp3a11 fold expression: 1.21 fold and 1.31 fold and 1.6 fold
  mdr1 fold expression: 0.95 fold and 0.87 fold and 0.81 fold
C57BL/6 mice; Small Intestine
  Cyp3a11 fold expression: 1.28 fold and 1.07 fold and 0.75 fold
  mdr1 fold expression: 1.46 fold and 2.26 fold and 1.43 fold
C57BL/6 mice; ~500 μM, 36 or 60 h
  PXR target gene (cyp3a11, mdr1a, mdr1b, mdr1) expression across organs: No significant effect
Cyp3a11 [1]; in vivo, read-out: Cyp3a11 fold induction, Large Intestine
  fold induction at 60 h, 500 µM: 2.55
Cyp3a11 [1]; liver, oral, 500 μM FKK6 gavage every 12 h
  fold induction at 60 h: 1.72
mdr1a; in vivo, read-out: mdr1a fold induction, Liver
  fold induction at 60 h, 500 µM: 1.81
mdr1a; large intestine, oral, read-out: mdr1a fold induction, Large Intestine
  fold induction at 60 h, 500 µM: 1.27
mdr1a; liver, oral, read-out: mdr1a fold induction, Liver
  fold induction at 60 h, 500 µM: 3.05
Cyp3a11 [2]; large intestine, × DMSO, read-out: Cyp3a11 fold induction, Large Intestine
  fold induction at 60 h, 500 µM: 0.36
Cyp3a11 [2]; liver, read-out: Cyp3a11 fold induction, Liver
  fold induction at 60 h, 500 µM: 1.54
Cyp3a11 [2]; small intestine, × DMSO, read-out: Cyp3a11 fold induction, Small Intestine
  fold induction at 60 h, 500 µM: 0.25
mdr1; large intestine, read-out: mdr1 fold induction, Large Intestine
  fold induction at 60 h, 500 µM: 0.71
mdr1; liver, read-out: mdr1 fold induction, Liver
  fold induction at 60 h, 500 µM: 1.22
mdr1; small intestine, read-out: mdr1 fold induction, Small Intestine
  fold induction at 60 h, 500 µM: 1.16
Pxr -/- mice [3]; 36 h and 60 h
  PXR target gene (mdr1) expression across organs: no effect
Pxr -/- mice [3]; Large Intestine
  Cyp3a11 fold expression: 0.69 fold and 0.64 fold and 0.66 fold
  mdr1 fold expression: 0.87 fold and 0.67 fold and 0.93 fold
Pxr -/- mice [3]; Liver
  Cyp3a11 fold expression: 0.84 fold and 1.18 fold and 1.42 fold
Pxr -/- mice [3]; Small Intestine
  Cyp3a11 fold expression: 0.98 fold and 0.96 fold and 1.09 fold
  mdr1 fold expression: 0.52 fold and 0.37 fold and 0.63 fold
Pxr -/- mice [3]; mouse, in vivo
  target gene expression levels (cyp3a11, mdr1) decrease vs DMSO: ≤ 1.5 fold
Pxr -/- mice [4]; FKK6 200 μM, 10 days
  weight loss, colon length, inflammation score, lipocalin 2, FITC-dextran levels: did not alter
Pxr -/- mice [4]; pxr -/- mice, DSS colitis, Fig 6a, individual values
  % weight loss from baseline (day 10): 24% and 25% and 22%
